“Also recorded” adds a separate entry of the source. Marks after values point to notes of the source that are not given here.
Experiments:
[1] = tested on: healthy participants; assay: Incidental visual memory ERP paradigm; type: in vivo, human; conditions: for Mean amplitude over the parietal cortex, Incidental Memory task, Novel trials / Mean amplitude over the parietal cortex, Incidental Memory task, Repeat trials: mean (SD)
Procedure: Following the cognitive battery, an electrophysiology recording was set up. Visual and auditory ERPs were recorded using a 128-channel Geodesic sensor net (EGI, Inc., Eugene, OR; [37, 38]). The electrophysiological recording was sampled at 250 Hz with filters set at 0.1–100 Hz. During data collection, all electrodes were referenced to vertex (Cz). The recording session lasted approximately 30 min.
(§1) A passive incidental visual memory paradigm (120 trials, 8 min; [38]) was used to evaluate changes in basic memory processes. Participants were asked to view a slide show of novel color photographs depicting complex natural scenes (different sets of images were used at pre-dose vs. post-dose administration test sessions). A small subset (n = 10) of the stimuli was presented repeatedly (× 5 each) throughout the session; the rest (n = 50) were shown once. To encourage attention to the stimulus sequence, 20 attention probes (a yellow smiley face) were presented throughout the test session and required a button press response. The task duration was approximately 7 min.
ERP processing and Analysis: Single-trial ERPs were derived by extracting a 100-ms pre-stimulus baseline and a 900 ms post-stimulus interval. The trials were screened for ocular and motor artifacts using automated procedures with standard threshold settings (NetStation 4.4, EGI, Inc) and verified using manual review. Data for electrodes characterized by consistent artifacts were replaced using the spherical spline interpolation algorithm. If more than 15 electrodes within a trial were noisy, the entire trial was discarded. Remaining artifact-free trials were averaged separately for each condition (standard vs. oddball; novel vs. repeated images), re-referenced to an average reference, and baseline corrected. For individual participant’s data to be included in the analysis, each condition average had to have a minimum of 10 artifact-free trials.
Statistical analysis focused on a priori selected electrode clusters corresponding to frontal, central, and parietal midline locations (Fz, Cz, Pz in 10–20 notation), confirmed using spatial principal components analysis. Mean amplitudes were calculated within 250–400 ms (frontal P3a), 300–500 ms (parietal P300), and 500–800 ms (parietal P600) temporal windows. These a-priori selected windows were confirmed using temporal principal components analysis.
Analyses for the auditory and visual oddball ERPs focused on the parietal (P300) and frontal (P3a) responses to standard and target stimuli. Differences in the amplitude, latency, and scalp topography of the responses were examined. […] For the incidental memory paradigm, differences in the mean amplitude of the parietal P300/P600 responses to repeated vs. novel presentations. The amplitude of the parietal P300/P600 waveform measures stimulus recognition. A larger positive amplitude for repeated compared to novel images indicates spontaneous formation of a memory trace.
as §1, with “(Key & Dykens, 2014))” for “[38])”, “once. All stimuli were presented in random order for 1500 ms with a random interstimulus interval of 1300-1600 ms.” for “once.”, “minutes.” for “min.”

[2] = tested on: M1 mAChR; conditions: cited from earlier work
[3] = SAD study, 120mg, Pre-Drug, n = 5
[4] = VU319 120 mg, fasting, post-drug session
[5] = VU319 120 mg, fasting, pre-drug session
[6] = VU319 120 mg, fed, post-drug session
[7] = VU319 120 mg, fed, pre-drug session

Cn1cc2c(-c3cc(F)c(CN4Cc5ncccc5C4=O)c(F)c3)cccc2n1 [VU319]
Incidental memory, novel vs repeated images ([1]; 120 mg, fasted condition, either session, both p > 0.2): did not show a difference | Incidental memory parietal P300/P600 amplitude, repeated vs novel, effect size d ([1]; 120 mg, fed condition, p = 0.018): 0.91 | Incidental memory parietal P300/P600 amplitude, repeated vs novel, effect size d ([1]; 400 mg, p = 0.098): 0.83 | Incidental memory parietal P300/P600 amplitude, repeated vs novel, effect size d ([1]; 600 mg, p = 0.09): 0.86 | Incidental memory P300/P600 amplitude, repeated vs novel, higher two doses compared to placebo, effect size d ([1]; 400 and 600 mg): > 0.8 | Mean amplitude over the parietal cortex, Incidental Memory task, Novel trials ([1]; SAD study, 60 mg, Post-Drug): 0.87 (1.92) µV | Mean amplitude over the parietal cortex, Incidental Memory task, Repeat trials ([1]; SAD study, 60 mg, Post-Drug): 1.25 (1.02) µV | Mean amplitude over the parietal cortex, Incidental Memory task, Novel trials ([1]; SAD study, 60 mg, Pre-Drug): 0.49 (2.16) µV | Mean amplitude over the parietal cortex, Incidental Memory task, Repeat trials ([1]; SAD study, 60 mg, Pre-Drug): 0.77 (1.85) µV | Mean amplitude over the parietal cortex, Incidental Memory task, Novel trials ([1]; SAD study, 120 mg, Post-Drug): 1.67 (2.01) µV | Mean amplitude over the parietal cortex, Incidental Memory task, Repeat trials ([1]; SAD study, 120 mg, Post-Drug): 2.16 (1.69) µV | Mean amplitude over the parietal cortex, Incidental Memory task, Novel trials [1, 3]: 2.3 (1.78)^# µV | Mean amplitude over the parietal cortex, Incidental Memory task, Repeat trials [1, 3]: 2.66 (2.5)^# µV | Mean amplitude over the parietal cortex, Incidental Memory task, Novel trials ([1]; SAD study, 240 mg, Post-Drug): 1.76 (1.4) µV | Mean amplitude over the parietal cortex, Incidental Memory task, Repeat trials ([1]; SAD study, 240 mg, Post-Drug): 2.19 (1.37) µV | Mean amplitude over the parietal cortex, Incidental Memory task, Novel trials ([1]; SAD study, 240 mg, Pre-Drug): 1.22 (1.44) µV | Mean amplitude over the parietal cortex, Incidental Memory task, Repeat trials ([1]; SAD study, 240 mg, Pre-Drug): 2.14 (1.27) µV | Mean amplitude over the parietal cortex, Incidental Memory task, Novel trials ([1]; SAD study, 400 mg, Post-Drug): 2.45 (1.79) µV | Mean amplitude over the parietal cortex, Incidental Memory task, Repeat trials ([1]; SAD study, 400 mg, Post-Drug): 3.14 (2.3) µV | Mean amplitude over the parietal cortex, Incidental Memory task, Novel trials ([1]; SAD study, 400 mg, Pre-Drug): 2.35 (1.07) µV | Mean amplitude over the parietal cortex, Incidental Memory task, Repeat trials ([1]; SAD study, 400 mg, Pre-Drug): 1.91 (1.19) µV | Mean amplitude over the parietal cortex, Incidental Memory task, Novel trials ([1]; SAD study, 600 mg, Post-Drug): 1.98 (0.97) µV | Mean amplitude over the parietal cortex, Incidental Memory task, Repeat trials ([1]; SAD study, 600 mg, Post-Drug): 3.17 (1.37) µV | Mean amplitude over the parietal cortex, Incidental Memory task, Novel trials ([1]; SAD study, 600 mg, Pre-Drug): 2.47 (1.3) µV | Mean amplitude over the parietal cortex, Incidental Memory task, Repeat trials ([1]; SAD study, 600 mg, Pre-Drug): 2.74 (1.63) µV | Mean amplitude over the parietal cortex, Incidental Memory task, Novel trials [1, 4]: 1.0 (1.39) µV | Mean amplitude over the parietal cortex, Incidental Memory task, Repeat trials [1, 4]: 1.48 (1.3) µV | Mean amplitude over the parietal cortex, Incidental Memory task, Novel trials [1, 5]: 1.34 (1.09) µV | Mean amplitude over the parietal cortex, Incidental Memory task, Repeat trials [1, 5]: 1.46 (1.45) µV | Mean amplitude over the parietal cortex, Incidental Memory task, Novel trials [1, 6]: 1.04 (1.81) µV | Mean amplitude over the parietal cortex, Incidental Memory task, Repeat trials [1, 6]: 2.43 (1.59) µV | Mean amplitude over the parietal cortex, Incidental Memory task, Novel trials [1, 7]: 1.0 (0.95) µV | Mean amplitude over the parietal cortex, Incidental Memory task, Repeat trials [1, 7]: 0.88 (2.27) µV | agonist properties at M1 [2]: devoid of agonist properties; also recorded: lack of direct orthosteric agonism of M1 receptors
